# Assays:
# [1] = target: Melanocyte-stimulating hormone receptor (Homo sapiens, UniProt Q01726); assay: Agonistic activity against human Melanocortin 1 receptor; type: functional
# [2] = target: Melanocortin receptor 3 (Homo sapiens, UniProt P41968); assay: Agonistic activity against human Melanocortin 3 receptor; type: functional
# [3] = target: Melanocortin receptor 4 (Homo sapiens, UniProt P32245); assay: Agonistic activity against human Melanocortin 4 receptor; type: functional
# [4] = target: Melanocortin receptor (M1 and M4) (Homo sapiens) (UniProt P32245+Q01726); assay: Ratio of EC50 of Melanocortin 4 receptor to that of Melanocortin 1 receptor; type: protein assay
# [5] = target: Melanocortin receptor (M3 and M4) (Homo sapiens) (UniProt P32245+P41968); assay: Ratio of EC50 of Melanocortin 4 receptor to that of Melanocortin 3 receptor; type: protein assay
# Chain of Melanocyte-stimulating hormone receptor (Q01726 whole entry): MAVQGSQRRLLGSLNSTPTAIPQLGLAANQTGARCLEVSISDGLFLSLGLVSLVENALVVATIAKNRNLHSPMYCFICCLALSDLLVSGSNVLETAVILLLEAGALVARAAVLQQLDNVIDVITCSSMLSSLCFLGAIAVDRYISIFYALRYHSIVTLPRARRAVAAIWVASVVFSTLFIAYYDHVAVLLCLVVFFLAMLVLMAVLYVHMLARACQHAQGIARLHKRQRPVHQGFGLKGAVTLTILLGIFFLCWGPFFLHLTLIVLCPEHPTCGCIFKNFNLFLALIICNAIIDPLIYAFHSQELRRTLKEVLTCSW
# Chain of Melanocortin receptor 4 (P32245 whole entry): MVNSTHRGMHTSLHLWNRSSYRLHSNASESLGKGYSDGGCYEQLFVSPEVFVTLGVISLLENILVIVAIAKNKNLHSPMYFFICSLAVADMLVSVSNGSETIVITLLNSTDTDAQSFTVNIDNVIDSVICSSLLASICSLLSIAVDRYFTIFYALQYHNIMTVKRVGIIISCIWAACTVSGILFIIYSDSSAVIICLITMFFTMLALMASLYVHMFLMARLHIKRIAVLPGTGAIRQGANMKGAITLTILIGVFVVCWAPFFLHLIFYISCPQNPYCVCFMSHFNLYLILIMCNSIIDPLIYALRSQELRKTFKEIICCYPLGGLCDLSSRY
# Chain of Melanocortin receptor 3 (P41968 whole entry): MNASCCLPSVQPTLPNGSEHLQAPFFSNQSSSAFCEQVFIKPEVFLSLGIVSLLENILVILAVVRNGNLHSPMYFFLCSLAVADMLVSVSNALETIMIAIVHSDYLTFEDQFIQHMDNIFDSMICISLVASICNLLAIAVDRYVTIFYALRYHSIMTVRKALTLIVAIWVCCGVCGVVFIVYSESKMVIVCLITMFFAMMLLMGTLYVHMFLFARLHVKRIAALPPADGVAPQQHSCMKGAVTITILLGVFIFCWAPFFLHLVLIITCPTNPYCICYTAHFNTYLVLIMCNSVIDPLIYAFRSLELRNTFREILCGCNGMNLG
Compound,EC50 [1] [nM],EC50 [2] [nM],EC50 [3] [nM],Ratio [4],Ratio [5]
COP(=S)(N[C@@H](Cc1ccc(Cl)cc1)C(=O)NC(Cc1ccccc1)C(=O)N[C@@H](CCCN=C(N)N)C(=O)N[C@@H](Cc1c[nH]c2ccccc12)C(N)=O)OC (stereo in doubt),1890,1600,446,4,4
C=CCC(=O)N[C@@H](Cc1ccc(Cl)cc1)C(=O)NC(Cc1ccccc1)C(=O)N[C@@H](CCCNC(=N)N)C(=O)N[C@@H](Cc1c[nH]c2ccccc12)C(N)=O (stereo in doubt),856,863,13.7,62,63
N=C(N)NCCC[C@H](NC(=O)C(Cc1ccccc1)NC(=O)[C@H](Cc1ccc(Cl)cc1)NC(=O)Nc1ccccc1)C(=O)N[C@@H](Cc1c[nH]c2ccccc12)C(N)=O (stereo in doubt),985,92.5,146,7,0.6
N=C(N)NCCC[C@H](NC(=O)C(Cc1ccccc1)NC(=O)[C@H](Cc1ccc(Cl)cc1)NS(=O)(=O)C(F)(F)F)C(=O)N[C@@H](Cc1c[nH]c2ccccc12)C(N)=O (stereo in doubt),2160,1670,4530,0.5,0.4
N=C(N)NCCC[C@H](NC(=O)C(Cc1ccccc1)NC(=O)[C@H](Cc1ccc(Cl)cc1)NC(=O)COc1ccccc1)C(=O)N[C@@H](Cc1c[nH]c2ccccc12)C(N)=O (stereo in doubt),841,859,185,4,5

# The next compounds have a lower EC50 [1] than those just listed; values first:
EC50 [1] [nM],EC50 [2] [nM],EC50 [3] [nM],Ratio [4],Ratio [5],Compound
785,2640,137,6,19,COP(=O)(N[C@@H](Cc1ccc(Cl)cc1)C(=O)NC(Cc1ccccc1)C(=O)N[C@@H](CCCN=C(N)N)C(=O)N[C@@H](Cc1c[nH]c2ccccc12)C(N)=O)OC (stereo in doubt)
534,6700,419,1,16,CS(=O)(=O)N[C@@H](Cc1ccc(Cl)cc1)C(=O)NC(Cc1ccccc1)C(=O)N[C@@H](CCCN=C(N)N)C(=O)N[C@@H](Cc1c[nH]c2ccccc12)C(N)=O (stereo in doubt)
502,961,68.7,7,14,COCC(=O)N[C@@H](Cc1ccc(Cl)cc1)C(=O)NC(Cc1ccccc1)C(=O)N[C@@H](CCCN=C(N)N)C(=O)N[C@@H](Cc1c[nH]c2ccccc12)C(N)=O (stereo in doubt)
381,145,23.7,16,6,CC(C)(C)C(=O)N[C@@H](Cc1ccc(Cl)cc1)C(=O)NC(Cc1ccccc1)C(=O)N[C@@H](CCCN=C(N)N)C(=O)N[C@@H](Cc1c[nH]c2ccccc12)C(N)=O (stereo in doubt)
378,1020,39.3,10,26,CSCC(=O)N[C@@H](Cc1ccc(Cl)cc1)C(=O)NC(Cc1ccccc1)C(=O)N[C@@H](CCCN=C(N)N)C(=O)N[C@@H](Cc1c[nH]c2ccccc12)C(N)=O (stereo in doubt)
41,140,96,0.4,1.5,N=C(N)NCCC[C@H](NC(=O)C(Cc1ccccc1)NC(=O)[C@H](Cc1ccc(Cl)cc1)NC(=O)CCC(=O)c1cc(F)cc(F)c1)C(=O)N[C@@H](Cc1c[nH]c2ccccc12)C(N)=O (stereo in doubt)
